A short description of the data set: thermodynamic acid dissociation constant (pKa) of pH sensitive reagents. The data set is classed as physicochemical. To be noted: reagent properties used in simulations.

Each structure is given as a SMILES string.

The molecule `O=S1(=O)OC(c2cc(Br)c(O)c(Br)c2)(c2cc(Br)c(O)c(Br)c2)c2ccccc21` [Bromophenol Blue] registered a pKa of 4.11.
The result for `O=S1(=O)OC(c2ccc(O)c(Cl)c2)(c2ccc(O)c(Cl)c2)c2ccccc21` [Chlorophenol Red] reads 6.11.

The term pKa denotes the negative logarithm of the acid dissociation constant. A low value points to a stronger acid or weaker base.

(Values after patent publication US7432109B2, “Spetroscopic pH measurement using optimized mixtures of reagents to extend measurement range” (Schlumberger Technology Corporation, priority 2002, dated 2008).)
